Test results as given in the supplement of paper PMC10307832.

What was measured:
Experiment in all cases: relative viability (nuclei count vs DMSO), 5 days (fraction); higher = more cells survive
BI-D1870 + OSI-027 = compound: CC(C)CCN1c2nc(Nc3cc(F)c(O)c(F)c3)ncc2N(C)C(=O)C1C [BI-D1870] + COc1cccc2cc(-c3nc([C@H]4CC[C@H](C(=O)O)CC4)n4ncnc(N)c34)[nH]c12 [OSI-027] (partner 0.5 µM)
Method in brief: (§1)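 Cells from lung cancer lines were seeded into 1536-well plates and, one day later, dosed by pin tool. Treatments were either a single drug or a fixed dose of an anchor drug with five library-drug doses (not always all listed) in √10 steps. After 5 days, nuclei were stained in a one-step fixation (final 0.05% Triton X-100, 1% formaldehyde, 1 ug/ml Hoechst) and counted on 4× images, and relative viability is the treated-to-vehicle nuclei ratio, as the median of duplicate plates.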

Zebularine + Lapatinib = compound: O=c1ncccn1[C@@H]1O[C@H](CO)[C@@H](O)[C@H]1O [Zebularine] + CS(=O)(=O)CCNCc1ccc(-c2ccc3ncnc(Nc4ccc(OCc5cccc(F)c5)c(Cl)c4)c3c2)o1 [Lapatinib] (partner 2 µM)
Method in brief: as §1

Zebularine + Dasatinib = compound: O=c1ncccn1[C@@H]1O[C@H](CO)[C@@H](O)[C@H]1O [Zebularine] + Cc1nc(Nc2ncc(C(=O)Nc3c(C)cccc3Cl)s2)cc(N2CCN(CCO)CC2)n1 [Dasatinib] (partner 0.075 µM)
Method in brief: as §1

BI-D1870 + Pictilisib = compound: CC(C)CCN1c2nc(Nc3cc(F)c(O)c(F)c3)ncc2N(C)C(=O)C1C [BI-D1870] + CS(=O)(=O)N1CCN(Cc2cc3nc(-c4cccc5[nH]ncc45)nc(N4CCOCC4)c3s2)CC1 [Pictilisib] (partner 1 µM)
Method in brief: as §1

Cell Line	relative viability (BI-D1870 + OSI-027; first compound 0.04 µM)	relative viability (BI-D1870 + OSI-027; first compound 0.1265 µM)	relative viability (BI-D1870 + OSI-027; first compound 0.4 µM)	relative viability (BI-D1870 + OSI-027; first compound 1.265 µM)	relative viability (BI-D1870 + OSI-027; first compound 4 µM)	relative viability (Zebularine + Lapatinib; first compound 1 µM)	relative viability (Zebularine + Lapatinib; first compound 3.162 µM)	relative viability (Zebularine + Lapatinib; first compound 10 µM)	relative viability (Zebularine + Lapatinib; first compound 31.62 µM)	relative viability (Zebularine + Lapatinib; first compound 100 µM)	relative viability (Zebularine + Dasatinib; first compound 1 µM)	relative viability (Zebularine + Dasatinib; first compound 3.162 µM)	relative viability (Zebularine + Dasatinib; first compound 10 µM)	relative viability (Zebularine + Dasatinib; first compound 31.62 µM)	relative viability (Zebularine + Dasatinib; first compound 100 µM)	relative viability (BI-D1870 + Pictilisib; first compound 0.04 µM)	relative viability (BI-D1870 + Pictilisib; first compound 0.1265 µM)	relative viability (BI-D1870 + Pictilisib; first compound 0.4 µM)	relative viability (BI-D1870 + Pictilisib; first compound 1.265 µM)	relative viability (BI-D1870 + Pictilisib; first compound 4 µM)
LU99A	0.295	0.265	0.288	0.308	0.287	1.14	0.838	0.615	0.421	0.176	0.722	0.523	0.44	0.325	0.116	0.368	0.253	0.319	0.305	0.358
ABC-1	0.669	0.406	0.416	0.501	0.319	1.05	1.08	0.655	0.642	0.605	0.637	0.352	0.454	0.435	0.351	0.751	0.673	0.633	0.744	0.566
NCI-H2170	0.732	0.634	0.65	0.428	0.639	0.302	0.263	0.251	0.26	0.266	0.658	0.572	0.364	0.559	0.278	0.287	0.333	0.347	0.301	0.302
NCI-H2347	0.422	0.458	0.374	0.476	0.478	1.07	0.783	0.816	0.628	0.45	0.309	0.322	0.302	0.227	0.254	0.797	0.466	0.662	0.649	0.44
NCI-H1993	0.481	0.511	0.53	0.537	0.54	0.848	0.691	–	0.718	0.735	0.658	0.609	0.48	0.498	0.496	0.864	0.704	0.769	0.71	0.622
NCI-H322M	0.579	0.511	0.38	0.444	0.494	0.608	0.589	0.586	0.601	0.576	0.257	0.263	0.237	0.278	0.246	0.579	0.526	0.411	0.526	0.475
NCI-H838	0.378	0.352	0.349	0.47	0.462	1.19	1.14	0.632	0.834	0.382	0.318	0.238	0.239	0.268	0.278	0.442	0.421	0.529	0.498	0.574
HARA	0.616	0.417	0.503	0.608	0.421	0.731	0.906	–	0.896	1.02	0.219	–	–	0.35	0.274	0.597	0.314	0.458	0.518	0.366
NCI-H2087	0.733	0.516	0.58	0.638	0.392	1.16	0.662	0.615	0.924	0.275	1.14	0.786	0.426	0.972	0.631	0.963	0.867	0.86	1.03	0.665
NCI-H1437	0.924	0.788	0.807	0.941	0.786	0.925	0.934	–	0.787	0.333	0.521	0.462	0.333	0.531	0.459	0.418	0.348	0.415	0.408	0.389
NCI-H1792	0.753	0.613	0.533	0.552	0.397	0.978	0.879	0.416	0.428	0.284	0.71	0.713	0.262	0.421	0.414	0.248	0.274	0.24	0.297	0.227
NCI-H650	0.538	0.427	0.509	0.471	0.446	1.32	0.805	0.496	0.565	0.276	0.462	0.486	0.403	0.397	0.268	0.9	0.745	0.87	0.811	0.651
COR-L23	0.883	0.722	0.707	0.823	0.577	1.1	0.924	0.5	0.383	0.232	0.616	0.442	0.373	0.239	0.211	1.08	0.695	0.743	0.732	0.643
COR-L 105	0.769	0.682	0.619	0.808	0.754	0.388	0.367	0.362	0.361	0.364	0.33	0.294	0.33	0.367	0.369	0.4	0.405	0.407	0.474	0.386
LK-2	0.21	0.259	0.198	0.197	0.148	0.947	1.04	0.584	0.539	0.283	0.242	0.336	0.287	0.256	0.228	0.557	0.484	0.535	0.619	0.533
201T	0.742	0.826	0.702	0.801	0.683	1.05	1.09	0.902	1.06	1.11	0.635	0.586	0.508	0.6	0.548	0.672	0.624	0.716	0.684	0.642
